How the values were obtained:
GPR164 (Or51e1, Olfr558) [1] = biological target: T1, GPR164 (Or51e1, Olfr558) (Mus musculus, UniProt Q8VGZ7); test: cAMP EIA in Or51e1-overexpressing HEK293 cells, single concentration […]; format: cell-based; parameters: HA-tagged Or51e1 in HEK293 cells, active only when co-transfected with RTP1S
T1 sequence (Q8VGZ7 1-317): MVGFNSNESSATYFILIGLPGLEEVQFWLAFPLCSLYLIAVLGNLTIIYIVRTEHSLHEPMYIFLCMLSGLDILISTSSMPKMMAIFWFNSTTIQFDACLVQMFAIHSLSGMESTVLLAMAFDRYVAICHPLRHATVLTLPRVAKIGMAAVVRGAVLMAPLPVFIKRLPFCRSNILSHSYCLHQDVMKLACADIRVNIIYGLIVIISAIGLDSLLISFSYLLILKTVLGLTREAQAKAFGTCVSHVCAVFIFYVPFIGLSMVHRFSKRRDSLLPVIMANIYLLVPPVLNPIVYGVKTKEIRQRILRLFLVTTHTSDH

GPR164 (Or51e1, Olfr558) [2] = biological target: T1, GPR164 (Or51e1, Olfr558); test: as above; format: cell-based; parameters: HA-tagged Or51e1 in HEK293 cells, co-transfected with RTP1S or RTP4

Compound	cAMP EIA in Or51e1-overexpressing HEK293 cells, single concentration 1 mM (GPR164 (Or51e1, Olfr558) [1])	intracellular cAMP response (GPR164 (Or51e1, Olfr558) [2])
CCCCCCCCCC(=O)O [C10, decanoate]	GPR164 was activated by the stimulation with butyrate or decanoate when cells were co-transfected with both Or51e1 and RTP1S	–
CCCCC(=O)O [C5, valerate]	–	only SCFAs (butyrate and valerate) activated GPR164 in cells expressing RTP4 (Fig. 1B)
CCCC(=O)O [C4, butyrate]	–	intracellular cAMP levels were upregulated by the treatment with butyrate or valerate (Fig. 1B)

Source: publication PMC12678807, “The free fatty acid receptor GPR164 maintains intestinal homeostasis and barrier function” (EMBO Reports, 2025)
